Data from patent US20230104936A1, “TRPML MODULATORS” (Casma Therapeutics, Inc., priority 2019, published 2023).

Test system: TFEB
Assay: TFEB nuclear translocation assay, HeLa wt cells
Assay type: cell-based
Conditions: 2 hrs compound treatment, Table 1 does not say HeLa wt or TRPML1 KO
Method in brief: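 HeLa wt or TRPML1 KO cells treated 2 hrs with compounds at 37° C, fixed in 4% PFA, immunostained with anti-TFEB plus Alexa 488 secondary and Hoechst. Imaged at ×20, four fields/well; read-out is nuclear/perinuclear-ring TFEB intensity ratio, reported as AC50.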

O=S(=O)(Nc1cc(Cl)ccc1N1CC2(CCC2)C1C1CCCO1)c1ccc2c(c1)CCC2 (stereo not drawn) [Compound A-397, N-{5-chloro-2-[1-(oxolan-2-yl)-2-azaspiro[3.3]heptan-2-yl]phenyl}-2,3-dihydro-1H-indene-5-sulfonamide]
AC50 (Homo sapiens, HeLa, 2 h): 2010 to 8000 nM

Cn1cnc(S(=O)(=O)Nc2ccccc2N2CCN(c3ccc(Cl)cc3F)CC2)c1 [Compound A-2, N-{2-[4-(4-chloro-2-fluorophenyl)piperazin-1-yl]phenyl}-1-methyl-1H-imidazole-4-sulfonamide]
AC50 (Homo sapiens, HeLa, 2 h): ≤ 2000 nM

C[C@@H]1CN(c2ccccc2NS(=O)(=O)c2ccc(S(=O)(=O)N(C)C)cc2)C[C@H](C)N1c1ccc(Cl)cn1 [Compound A-121, N4-{2-[(3R,5S)-4-(5-chloropyridin-2-yl)-3,5-dimethylpiperazin-1-yl]phenyl}-N1,N1-dimethylbenzene-1,4-disulfonamide]
AC50 (Homo sapiens, HeLa, 2 h): ≤ 2000 nM

CN(C)S(=O)(=O)c1ccc(S(=O)(=O)Nc2ccccc2N2CCC(C3(O)CC3)CC2)cc1 [Compound A-433, N4-{2-[4-(1-hydroxycyclopropyl)piperidin-1-yl]phenyl}-N1,N1-dimethylbenzene-1,4-disulfonamide]
AC50 (Homo sapiens, HeLa, 2 h): 2010 to 8000 nM

CS(=O)(=O)c1ccc(S(=O)(=O)Nc2cc(F)ccc2N2CCC(c3c(F)cccc3F)CC2)cc1 [Compound A-154, N-{2-[4-(2,6-difluorophenyl)piperidin-1-yl]-5-fluorophenyl}-4-methanesulfonylbenzene-1-sulfonamide]
AC50 (Homo sapiens, HeLa, 2 h): ≤ 2000 nM

C[C@H]1CN(CC2CCN(c3c(F)cccc3NS(=O)(=O)c3ccc(S(=O)(=O)N(C)C)cc3)CC2)C[C@H](C)O1 [Compound A-826, N4-[2-(4-{[(2S,6S)-2,6-dimethylmorpholin-4-yl]methyl}piperidin-1-yl)-3-fluorophenyl]-N1,N1-dimethylbenzene-1,4-disulfonamide]
AC50 (Homo sapiens, HeLa, 2 h): ≤ 2000 nM

CN(C)S(=O)(=O)c1ccc(S(=O)(=O)Nc2ccccc2N2CC3CC2CN3c2ccc(Cl)cc2F)cc1 (stereo not drawn) [Compound A-31, N4-{2-[5-(4-chloro-2-fluorophenyl)-2,5-diazabicyclo[2.2.1]heptan-2-yl]phenyl}-N1,N1-dimethylbenzene-1,4-disulfonamide]
AC50 (Homo sapiens, HeLa, 2 h): ≤ 2000 nM

CN(C)S(=O)(=O)c1ccc(S(=O)(=O)Cc2ccccc2N2CCN(C(=O)OCc3ccccc3)CC2)cc1 [Compound A-598, benzyl 4-(2-{[4-(dimethylsulfamoyl)benzenesulfonyl]methyl}phenyl)piperazine-1-carboxylate]
AC50 (Homo sapiens, HeLa, 2 h): ≤ 2000 nM

C[C@@H](c1cccc(F)c1N1CCC(C(F)(F)F)CC1)S(=O)(=O)c1ccc(S(=N)(=O)N(C)C)cc1 (single isomer, unassigned) [Compound A-932]
AC50 (Homo sapiens, HeLa, 2 h): ≤ 2000 nM

O=S(=O)(c1ccc2c(c1)CCC2)N1Cc2cccc(N3CCOCC3)c2C1 [Compound A-819, 2-(2,3-dihydro-1H-indene-5-sulfonyl)-4-(morpholin-4-yl)-2,3-dihydro-1H-isoindole]
AC50 (Homo sapiens, HeLa, 2 h): ≥ 10000 nM

CN(C)S(=O)(=O)c1ccc(S(=O)(=O)n2nc(C3CCN(c4c(F)cccc4F)CC3)c3c2CCCC3)cc1 [Compound A-504, 4-({3-[1-(2,6-difluorophenyl)piperidin-4-yl]-4,5,6,7-tetrahydro-1H-indazol-1-yl}sulfonyl)-N,N-dimethylbenzene-1-sulfonamide]
AC50 (Homo sapiens, HeLa, 2 h): ≤ 2000 nM

Cc1nc(C)c(S(=O)(=O)Nc2ccccc2N2CCC(CN3C[C@@H](C)O[C@@H](C)C3)CC2)s1 [Compound A-756, N-[2-(4-{[(2R,6S)-2,6-dimethylmorpholin-4-yl]methyl}piperidin-1-yl)phenyl]-2,4-dimethyl-1,3-thiazole-5-sulfonamide]
AC50 (Homo sapiens, HeLa, 2 h): 2010 to 8000 nM

COC1(CN2C[C@@H](C)O[C@@H](C)C2)CCN(c2c(F)cccc2NS(=O)(=O)c2ccc(S(=O)(=O)N(C)C)cc2)CC1 [Compound A-786, N4-[2-(4-[(2R,6S)-2,6-dimethylmorpholin-4-yl]methyl-4-methoxypiperidin-1-yl)-3-fluorophenyl]-N1,N1-dimethylbenzene-1,4-disulfonamide]
AC50 (Homo sapiens, HeLa, 2 h): ≤ 2000 nM

CC(C)(C)C(=O)N1CCN(c2ccccc2NS(=O)(=O)Cc2cccc3cccnc23)CC1 [Compound A-565, N-{2-[4-(2,2-dimethylpropanoyl)piperazin-1-yl]phenyl}-1-(quinolin-8-yl)methanesulfonamide]
AC50 (Homo sapiens, HeLa, 2 h): 8010 to 9990 nM

CC(c1cncc(F)c1N1CCC(CN2CCC(F)(F)CC2)CC1)S(=O)(=O)c1ccc(S(=O)(=O)N(C)C)cc1 (stereo not drawn) [Compound A-996, 4-[1-(4-{4-[(4,4-difluoropiperidin-1-yl)methyl]piperidin-1-yl}-5-fluoropyridin-3-yl)ethanesulfonyl]-N,N-dimethylbenzene-1-sulfonamide]
AC50 (Homo sapiens, HeLa, 2 h): ≤ 2000 nM

COCC1(C)CCN(c2ccccc2NS(=O)(=O)c2ccc3c(c2)CC(OC)C3)CC1 (stereo not drawn) [Compound A-707, 2-methoxy-N-{2-[4-(methoxymethyl)-4-methylpiperidin-1-yl]phenyl}-2,3-dihydro-1H-indene-5-sulfonamide]
AC50 (Homo sapiens, HeLa, 2 h): 2010 to 8000 nM

CC1(C)CC2(CCN(c3ccccc3NS(=O)(=O)c3ccc(Br)cc3)CC2)CO1 [Compound A-691, 4-bromo-N-(2-{3,3-dimethyl-2-oxa-8-azaspiro[4.5]decan-8-yl}phenyl)benzene-1-sulfonamide]
AC50 (Homo sapiens, HeLa, 2 h): 2010 to 8000 nM

CN(C)S(=O)(=O)c1ccc(S(=O)(=O)Nc2ccccc2N2CCC(c3ccc(Cl)cc3F)CC2)c(F)c1 [Compound A-149, N4-{2-[4-(4-chloro-2-fluorophenyl)piperidin-1-yl]phenyl}-3-fluoro-N1,N1-dimethylbenzene-1,4-disulfonamide]
AC50 (Homo sapiens, HeLa, 2 h): ≤ 2000 nM

CC(C1CCN(c2c(F)cccc2NS(=O)(=O)c2ccc(S(=N)(=O)N(C)C)cc2)CC1)N1C[C@@H](C)O[C@@H](C)C1 (single isomer, unassigned) [Compound A-871]
AC50 (Homo sapiens, HeLa, 2 h): ≤ 2000 nM

CC1(C)CC2(CCN(c3ccccc3NS(=O)(=O)c3ccc4c(c3)CCC(C(F)F)O4)CC2)CO1 (stereo not drawn) [Compound A-690, 2-(difluoromethyl)-N-(2-{3,3-dimethyl-2-oxa-8-azaspiro[4.5]decan-8-yl}phenyl)-3,4-dihydro-2H-1-benzopyran-6-sulfonamide]
AC50 (Homo sapiens, HeLa, 2 h): 2010 to 8000 nM

COCC1(C)CCN(c2ccc(OC)cc2NS(=O)(=O)c2ccc3c(c2)CCC3)CC1 [Compound A-630, N-{5-methoxy-2-[4-(methoxymethyl)-4-methylpiperidin-1-yl]phenyl}-2,3-dihydro-1H-indene-5-sulfonamide]
AC50 (Homo sapiens, HeLa, 2 h): ≤ 2000 nM

CN(C)S(=O)(=O)c1ccc(S(=O)(=O)Nc2ccccc2N2CCN(CC(F)F)CC2)cc1 [Compound A-552, N4-{2-[4-(2,2-difluoroethyl)piperazin-1-yl]phenyl}-N1,N1-dimethylbenzene-1,4-disulfonamide]
AC50 (Homo sapiens, HeLa, 2 h): ≤ 2000 nM

CN(C)S(=O)(=O)c1ccc(S(=O)(=O)Nc2ccccc2N2CCN(C(=O)[C@@]34CCC[C@@H]3C4)CC2)cc1 (racemic) [Compound A-477, rac-N4-(2-{4-[(1R,5R)-bicyclo[3.1.0]hexane-1-carbonyl]piperazin-1-yl}phenyl)-N1,N1-dimethylbenzene-1,4-disulfonamide]
AC50 (Homo sapiens, HeLa, 2 h): 2010 to 8000 nM

CN1CCN(S(=O)(=O)c2ccc(S(=O)(=O)Nc3ccccc3N3CCC(c4c(F)cccc4F)CC3)cc2)CC1 [Compound A-220, N-{2-[4-(2,6-difluorophenyl)piperidin-1-yl]phenyl}-4-[(4-methylpiperazin-1-yl)sulfonyl]benzene-1-sulfonamide]
AC50 (Homo sapiens, HeLa, 2 h): ≥ 10000 nM

CN(C)S(=O)(=O)c1ccc(S(=O)(=O)Cc2ccccc2N2CCC(c3ccc(Cl)cc3F)CC2)cc1 [Compound A-214, 4-((2-(4-(4-chloro-2-fluorophenyl)piperidin-1-yl)benzyl)sulfonyl)-N,N-dimethylbenzenesulfonamide]
AC50 (Homo sapiens, HeLa, 2 h): ≤ 2000 nM

CC(C1CCN(c2c(F)cccc2NS(=O)(=O)c2ccc(S(=N)(=O)N(C)C)cc2)CC1)N1C[C@@H](C)O[C@@H](C)C1 (single isomer, unassigned) [Compound A-871A]
AC50: ≤ 2000 nM

C[C@@H]1COC[C@H](C)N1C[C@H]1CCN(c2c(F)cccc2NS(=O)(=O)c2ccc(S(=O)(=O)N(C)C)cc2)C1 [Compound A-984]
AC50 (Homo sapiens, HeLa, 2 h): ≤ 2000 nM

COc1ccc(S(=O)(=O)Nc2cccnc2N2CCN(c3ccc(C#N)cc3F)CC2)cc1 [Compound A-117, N-{2-[4-(4-cyano-2-fluorophenyl)piperazin-1-yl]pyridin-3-yl}-4-methoxybenzene-1-sulfonamide]
AC50 (Homo sapiens, HeLa, 2 h): ≥ 10000 nM

COCC1(C)CCN(c2ccccc2NS(=O)(=O)Cc2ccc(C)c(F)c2)CC1 [Compound A-646, 1-(3-fluoro-4-methylphenyl)-N-{2-[4-(methoxymethyl)-4-methylpiperidin-1-yl]phenyl}methanesulfonamide]
AC50 (Homo sapiens, HeLa, 2 h): 2010 to 8000 nM

O=S(=O)(Nc1cc(Cl)ccc1N1CCC(c2c(F)cccc2F)CC1)c1ccc2c(c1)CCC2 [Compound A-292, N-{5-chloro-2-[4-(2,6-difluorophenyl)piperidin-1-yl]phenyl}-2,3-dihydro-1H-indene-5-sulfonamide]
AC50 (Homo sapiens, HeLa, 2 h): ≤ 2000 nM

CN1CC2(CCN(c3ccccc3NS(=O)(=O)c3ccc(S(C)(=O)=O)cc3)CC2)c2cccnc21 [Compound A-348, 4-methanesulfonyl-N-(2-{1′-methyl-1′,2′-dihydrospiro[piperidine-4,3′-pyrrolo[2,3-b]pyridin]-1-yl}phenyl)benzene-1-sulfonamide]
AC50 (Homo sapiens, HeLa, 2 h): 8010 to 9990 nM

CS(=N)(=O)c1ccc(S(=O)(=O)Nc2ccccc2N2CCC(O)(c3ccc(Cl)cc3F)CC2)cc1 (stereo not drawn) [Compound A-152, N-{2-[4-(4-chloro-2-fluorophenyl)-4-hydroxypiperidin-1-yl]phenyl}-4-[iimino(methyl)oxo-λ^6-sulfanyl]benzene-1-sulfonamide]
AC50 (Homo sapiens, HeLa, 2 h): ≥ 10000 nM

CC1(C)CC2(CCN(c3ccccc3NS(=O)(=O)c3ccn(C4CC4(F)F)n3)CC2)CO1 (stereo not drawn) [Compound A-689, 1-(2,2-difluorocyclopropyl)-N-(2-{3,3-dimethyl-2-oxa-8-azaspiro[4.5]decan-8-yl}phenyl)-1H-pyrazole-3-sulfonamide]
AC50 (Homo sapiens, HeLa, 2 h): ≥ 10000 nM
